Assay results taken from the METLIN SMRT retention time set (Domingo-Almenara et al. 2019).

Assay: gradient 5% acetonitrile 3 min, to 50% in 2 min, to 85% in 15 min, held 3 min, 100 µL/min
Settings: column: Zorbax Extend-C18 2.1 x 50 mm; eluents: water / acetonitrile, 0.1% formic acid
Procedure, shortened: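 Data were gathered over 3 months by HPLC coupled to a quadrupole time-of-flight mass spectrometer, operated in positive and negative ionization mode. Mixtures of ~100 pure standards ran on a Zorbax Extend-C18 column (2.1 × 50 mm, 1.8 μm) at 100 μL/min, with water and acetonitrile each containing 0.1% formic acid and dead and dwell volumes of 40 μL and 900 μL. Retention time was read from adduct peaks picked by computer and checked manually.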

Compound | RP-LC retention time
O=C(Nc1nc2c(F)cc(F)cc2s1)C1CCCN(S(=O)(=O)c2cccs2)C1 (centres undefined) | 767 s
O=C(NCc1csc(C2CCCN(C(=O)c3ccccc3)C2)n1)C1CCC1 (centres undefined) | 712 s
CCn1c(=O)sc2cc(S(=O)(=O)N3CCC(C(=O)Nc4ccc(F)c(F)c4)CC3)ccc21 | 955 s
CCCNC(=O)Cc1cn(CC)c2ncccc12 | 611 s
O=C(Cn1cnc2nc(N3CCC(C(=O)NC4CC4)CC3)sc2c1=O)Nc1ccc(F)c(F)c1 | 705 s
O=C1CC(c2nc(-c3cccc(C(F)(F)F)c3)no2)CN1c1ccc2c(c1)OCO2 (centres undefined) | 1020 s
Cc1nc(-n2cccc2)sc1C(=O)NCCN(C)C | 547 s
Cn1c(C(=O)Nc2ccc3c(c2)OCCO3)cc2c(=O)oc3ccccc3c21 | 910 s
Cc1ccc(Sc2cc3c(cc2NC(=O)c2ccco2)n(C)c(=O)n3C)cc1 | 988 s
O=C(NC1CCN(c2cc(-c3ccc(F)cc3)[nH]n2)C1)c1ccc(Cl)cc1 (centres undefined) | 777 s
O=C(Cc1cccs1)NC1CCN(c2cc(N3CCCC3)cnn2)C1 (centres undefined) | 608 s
O=C(NCc1cc(F)ccc1F)C1CCN(C(=O)c2ncn3c2COC(c2ccc(F)cc2)C3)CC1 (centres undefined) | 802 s
COC(=O)Nc1ccc(S(=O)(=O)N2CCCC(C(F)(F)F)C2)cc1 (centres undefined) | 837 s
Cc1cc(Cl)ccc1OCC(=O)Nc1nc(-c2ccc(F)cc2)cs1 | 1190 s
Oc1ccccc1-c1nc2ccc(Cl)cn2c1Nc1ccc2c(c1)OCCO2 | 879 s
CNC(=O)CC1CCOC2(CCN(C(=O)C3CC3)CC2)C1 (centres undefined) | 580 s
O=C(CSc1nc2ccccc2s1)Nc1cccn2cc(-c3ccccc3)nc12 | 1110 s
Cn1c(=O)n(C)c2cc(CNc3ccc(C(=O)O)cc3)ccc21 | 687 s
COc1ccc(-c2nc3ccccn3c2Nc2ccc3c(c2)OCCO3)cc1 | 719 s
Cc1ccc(-c2nnc(C3CN(C(=O)C4(c5ccccc5)CC4)CC34CCOCC4)o2)cc1 (centres undefined) | 830 s
C=C1/C(=C/C=C2/CCC[C@]3(C)[C@@H]([C@H](C)CCCC(C)C)CC[C@@H]23)C[C@@H](O)C[C@@H]1O | 1220 s
CC1=C(c2ccc(F)cc2)S(=O)(=O)N=C1N1CCCN(C(=O)NCC(C)C)CC1 | 793 s
CC(C)CC(=O)Nc1ccc(-c2nc(-c3ccc(Cl)cc3)no2)cc1 | 1310 s

Compound | RP-LC retention time
CCc1cc(=O)n(CC(=O)NCc2ccc(F)cc2F)c(N2CCOCC2)n1 | 720 s
CC(C(=O)N1CCN(c2cc(=O)n(C)c(=O)n2C)CC1)N1C(=O)COc2ccccc21 (centres undefined) | 627 s
Cc1ccc2c(c1)N(S(C)(=O)=O)CCC(C(=O)NCc1ccccc1Cl)O2 (centres undefined) | 945 s
Cc1cccc(NC(=O)C2CC(=O)N(c3ccc4c(c3)CCN4C(=O)C3CC3)C2)c1 (centres undefined) | 816 s
CC1CCCN(CCCNC(=O)CCCn2c3ccccc3c3cnn(C)c(=O)c32)C1 (centres undefined) | 626 s
COc1ccc(-c2nnc(-c3ccc(Cl)c(S(=O)(=O)N4CCOCC4)c3)o2)cc1 | 897 s
COCCCNC(=O)C1(C)Cn2nc(-c3ccccc3)cc2C(=O)N1c1ccccc1F (centres undefined) | 830 s
CCOC(=O)CC(NC(=O)NCc1ccnc(N2CCCCC2)c1)c1ccccc1 (centres undefined) | 645 s
CCn1cnc(S(=O)(=O)N2CCC(C(=O)N3CCc4ccccc4C3)CC2)c1 | 729 s
COC(=O)C1=C(C)NC(C)=C(C(=O)OCCSc2ccccc2)C1C (centres undefined) | 1080 s
Cn1cccc(C(=O)NCCn2nc(-c3cccs3)ccc2=O)c1=O | 591 s
COC(=O)CNC(=O)Nc1cc(F)c2nc(N3CCOCC3)ccc2c1 | 620 s
O=C(NCc1nc(-c2ccc(N3CCCC3)cc2)no1)c1ccco1 | 889 s
CCOc1ccccc1NC(=O)Cn1c(N2CCOCC2)nc(COC)cc1=O | 967 s
CCOC(=O)c1ccc(NS(=O)(=O)c2cc3n(c2)CCN(C(C)C)C3=O)cc1 | 777 s
COc1ccc(Cl)cc1S(=O)(=O)NCCn1nc(C)cc1C | 719 s
CO[C@H]1C(=O)N(C(C)C)[C@H]1C1CCN(C(=O)Cn2ccnc2)CC1 | 562 s
Cc1oc(-c2[nH]ncc2C(=O)N2CCCC2)cc1S(=O)(=O)Nc1ccc(C(C)C)cc1 | 835 s
Cc1cc(C)cc(N2C(=O)CN(C3CCCC3)[C@H]3CS(=O)(=O)C[C@H]32)c1 | 790 s
Cn1cc(-c2cc3n(n2)CCC(=O)N3CC(=O)NC2CCCc3ccccc32)c2ccccc21 (centres undefined) | 882 s
Cc1ccc(NC(=O)N2CC(c3nc(C(C)C)nn3C)C2)cc1C | 710 s
Cc1ccc(N2CCC(NC(=O)Nc3ccccc3C(F)(F)F)C2=O)cc1 (centres undefined) | 898 s
COc1cccc(-c2noc(Cn3ccnc3C)n2)c1OC | 601 s

Compound | RP-LC retention time
COC(=O)c1ncn2c1C(=O)N(Cc1ccc(F)cc1Cl)C(C)(C(=O)NCc1ccccc1)C2 (centres undefined) | 771 s
COc1cccc(C(=O)N2CCC3(CC2)NC(=O)c2cc(C)ccc2N3C)c1 | 752 s
CC(C)N1CCN(Cc2ccc(C(=O)NC3CC3)cc2)C(=O)C1=O | 604 s
CCc1cc(-c2csc(S(=O)(=O)N3CCN(C4CCCCC4)CC3)c2)on1 | 723 s
CN(C)S(=O)(=O)c1ccc(C(=O)Nc2cccc([N+](=O)[O-])c2)cc1 | 858 s
CCCCNC(=O)c1ccc2nc(CCc3ccc(NC(=O)CC)cc3)[nH]c2c1 | 570 s
CCS(=O)(=O)Nc1cc(-c2nnc(C(C)C)o2)sc1C | 863 s
N#Cc1cccc(S(=O)(=O)N2CCc3nc[nH]c3C2)c1 | 592 s
Cc1cc(C(=O)Nc2ccc(N3CCOCC3)cc2)nc2cc(-c3ccsc3)nn12 | 1030 s
O=C(NCCc1cccs1)C1CCN(c2cnn(Cc3ccccc3)c(=O)c2)CC1 | 765 s
CCN1CCCCc2cc(C(=O)NCC3CCN(CC(C)C)C3)sc21 (centres undefined) | 718 s
CCN1C(=O)Cc2cc(C(=O)NC3CCCCC3)ccc21 | 736 s
Cc1ccc(N2CCN(C(=O)c3ccc4c(c3)CC(=O)N4C)CC2)cc1 | 796 s
COc1ccc(OCc2nc(CCN(C)C(=O)CC3CCCC3)no2)cc1 | 919 s
CN1CCn2cc(S(=O)(=O)Nc3ccc(C#N)cc3)cc2C1=O | 662 s
COc1ccc(C(=O)N2CCc3ccc(C(=O)O)cc32)cc1 | 741 s
CCOC(=O)C1CCCN(C(=O)CCCSc2ccc(NC(=O)C3CC3)nn2)C1 (centres undefined) | 726 s
O=C1COc2ccc(NC(=O)c3cc(C4CC4)n(C4CCS(=O)(=O)C4)n3)cc2N1 (centres undefined) | 652 s
CCOc1ccc(-n2c(=O)c3sccc3n(Cc3nc(-c4cccc(C)c4)no3)c2=O)cc1 | 1100 s
CCCn1cnnc1C1CCCCN1S(=O)(=O)c1cccnc1 (centres undefined) | 580 s
c1ccc(-c2noc(NCCc3ccsc3)n2)cc1 | 969 s
CC12CC(NC(=O)N1c1ccc(C(=O)N3CCN(c4ccccn4)CC3)cc1)c1ccccc1O2 (centres undefined) | 599 s
Clc1ccc(-c2nc(NCc3cccs3)c3ccccc3n2)cc1 | 842 s

Compound | RP-LC retention time
CC(C)Nc1nc(=O)[nH]c2ccccc12 | 550 s
COc1ccc(OC)c(S(=O)(=O)N2CCCC(C(=O)N3CCC(C(N)=O)CC3)C2)c1 (centres undefined) | 635 s
CC(=O)N1c2ccc(S(=O)(=O)N3CCCCC3)cc2CC1C(=O)N(C)Cc1ccccc1 (centres undefined) | 864 s
CCn1cc(C(=O)Nc2ccc(C)cc2Cl)c2cccnc21 | 984 s
CC(=O)Nc1ccc(C2(C(=O)NCc3ccccc3C)CCC2)cc1 | 791 s
Cc1csc(CN2CCN(C(=O)CC(c3ccccc3)c3ccccc3)CC2)n1 | 665 s
O=C(CN1CCN(Cc2ccc(F)cc2)C(=O)C1=O)N1CCN(c2ccccc2F)CC1 | 778 s
CCN1C(=O)COc2ccc(-c3noc(-c4ccc(CS(=O)(=O)c5ccc(C)cc5)cc4)n3)cc21 | 1100 s
Cc1ccc(Cl)cc1NC(=O)Cn1c(=O)cnc2cc(C(=O)NC3CC3)ccc21 | 674 s
Cc1cccc(N2C(=O)CN(Cc3ccc(F)cc3)[C@H]3CS(=O)(=O)C[C@H]32)c1 | 812 s
COc1cc(NC(=O)Cn2nc(N3CCCC3)c3ccccc3c2=O)cc(OC)c1 | 918 s
COc1ccccc1CNC(=O)Cn1cncc(C)c1=O | 618 s
Cn1cc(-c2cc3n(n2)CCC(=O)N3CC(=O)NC2CCCCCC2)c2ccccc21 | 856 s
CN1C(=O)C(CC(=O)NCc2ccccn2)Sc2ncccc21 (centres undefined) | 762 s
Cc1ccc(CN2C[C@]34C=C[C@H](O3)[C@@H](C(=O)NCc3ccccc3)[C@H]4C2=O)cc1 | 822 s
Cc1cccc(-c2nnc(CC(=O)NC3CCCC3)o2)c1 | 658 s
CCNC(=O)c1cc(N2CCOCC2)nc2ccccc12 | 563 s
Cc1nn(C(C)C(=O)NCCc2ccco2)c(=O)c2nn(-c3ccccc3)c(C)c12 (centres undefined) | 788 s
O=C(CN1c2ccc(F)cc2-c2ccccc2S1(=O)=O)Nc1ccccc1 | 936 s
COc1cc(OC)c(NC(=O)C2CCCN(C(=O)c3cc(-c4ccncc4)n[nH]3)C2)cc1Cl (centres undefined) | 633 s
